ED50 data for two molecules are collected here from ChEMBL document CHEMBL1149928, “Stabilization of a prostaglandin tertiary allylic alcohol system by fluorine: synthesis, acid stability studies and pharmacology of a 16-fluoromethyl analog of SC-46275” (1992).

One assay relates to Canis familiaris. As to the kind of experiment: Compound was evaluated for the gastric antisecretory activity in food stimulated Pavlov pouch dogs by intrapouch administration. It counts as functional. Conditions: Canis lupus familiaris, Stomach.
The next assay deals with Rattus norvegicus. As to the kind of experiment: Compound was evaluated for the diarrheal effects in adult male rats by intragastric administration. It counts as functional. To be noted: po.

Structures are written as SMILES.

For orientation: ED50 means the midpoint of the dose-response relation. With `COC(=O)CC/C=C\CC[C@H]1C(=O)C[C@@H](O)[C@@H]1/C=C/C[C@@](C)(O)/C=C/C1=CCCC1`, the ED50 is 0.01 µg/kg in the assay on Canis familiaris and above 3160 µg/kg in the assay with Rattus norvegicus.

Consider `COC(=O)CC/C=C\CC[C@H]1C(=O)C[C@@H](O)[C@@H]1/C=C/C[C@@](O)(/C=C/C1=CCCC1)CF`, for which the figures for the ED50 with Canis familiaris and in the assay on Rattus norvegicus were 0.05 µg/kg and above 3160 µg/kg, respectively.
